Results taken from patent publication US20230064363A1, “MATURATION OF SPERMATOGONIAL CELLS IN VITRO BT GROWTH FACTORS AND HORMONES” (B.G. Negev Technologies & Applications Ltd., at Ben-Gurion …, priority 2020, published 2023).
Like-named read-outs stand apart in the source and are kept apart here.

Legend:
[1] = tested on: testes of immature mice
[2] = tested on: Sertoli cells; details: cells isolated from seminiferous tubules ten days post-treatment, compared to control
Procedure: Tubular Cell Isolation—The procedure was performed under sterile conditions. Testes from both control and CP-treated mice were removed and tunica albuginea was gently removed by scalpel knife. Seminiferous tubules (STs) were immersed with PBS and thereafter transported through a syringe 2-3 times to complete the mechanical digestion. Thereafter the STs were enzymatically digested as described by AbuMadigem et al. [International Journal of Molecular Sciences 19, 3804 (2018)].
Gene expression—RNA was extracted from isolated testicular cells, from control or CP-treated immature mice, by GenElute Mannalian Total RNA Miniprep Kit [Sigma, St. Louis, USA). cDNA synthesis was performed according to the qScript cDNA Synthesis Kit (Quantabio, Beverly, Mass., USA) and qPCR was performed using specific primers for each examined marker: ABP (forward: [sequence] (SEQ ID NO: 1); reverse: [sequence] (SEQ ID NO:2); product size, 237 bp), INHIBIN B (forward: [sequence] (SEQ ID NO:3); reverse: [sequence] (SEQ ID NO:4); product size, 209 bp), FSH-R (forward: [sequence] […] (SEQ ID NO: 6); product size, 206 bp), Transferrin (forward: [sequence] (SEQ ID NO:7); reverse: [sequence] (SEQ ID NO:8); product size: 231 bp), Housekeeping gene GAPDH (forward: [sequence] (SEQ ID NO:9); reverse: [sequence] (SEQ ID NO:10); product size, 450 bp). qPCR reaction was performed following the 2× qPCRBIO SyGreen Blue Mix Hi-ROX (PCR Biosystems Ltd, Aztec House, 397-405 Archway Road, London, UK) protocol and was performed using the LightCycler 96 real-time PCR machine (Roche, Roche Diagnostics Corporation, Roche CustomBiotech, Indianapolis, Ind., USA). Program: preincubation 10 minutes at 95° C., 40 cycles of 15 seconds at 95° C., 15 seconds at 60° C. and 10 seconds at 72° C. Melting cycle: 10 seconds at 95° C., 60 seconds at 65° C., and 1 second at 97° C. PCR products were identified by the melting curve. The “threshold cycle” (Ct) value for each transcript was identified. The relative quantity of gene expression was analyzed by the 2° method. Results were expressed as the fold of increase related to the GAPDH of the same examined sample and relatively compared to control treatment group.

[3] = tested on: spermatogonial cells isolated from CP-treated immature mice; assay: In vitro culture in MCS of seminiferous tubule cells from CP-treated immature mice; marker-positive cells by immunofluorescence staining; assay type: cell-based; details: for ACROSIN (meiotic/postmeiotic marker), percentage of stained cells / BOULE (meiotic marker), percentage of stained cells / C-KIT (pre-meiotic marker), percentage of stained cells / CD9 (pre-meiotic marker), percentage of stained cells / CREM (meiotic marker), percentage of stained cells / GFR-a (pre-meiotic marker), percentage of stained cells / VASA (pre-meiotic marker), percentage of stained cells / a-6-INTG (pre-meiotic marker), percentage of stained cells: after 4-5 weeks culture in MCS, FSH 7.5 IU/ml, IL-1α 20 pg/ml or TNF-α 20 pg/ml from the beginning, testosterone 10^−7 M at the last week
[4] = tested on: isolated seminiferous tubule cells; assay: Isolated seminiferous tubule cells of 7-days-old mice cultured in methylcellulose culture system (MCS); marker-positive cells by immunofluorescence staining; assay type: cell-based
[5] = tested on: isolated seminiferous tubule cells; assay: Isolated seminiferous tubule cells of 7-days-old mice cultured in MCS; premeiotic and meiotic/postmeiotic marker RNA by qPCR; assay type: cell-based; details: GM-CSF 0.1 or 1 ng/ml for 4 weeks; testosterone 10^−7 M added after 2 weeks in control medium for additional 2 weeks; after 4 weeks of culture; compared to control cultured cells
[6] = 10-days post last CP-injection, compared to control, p<0.001
[7] = 10-days post the last CP-injection, compared to control, p<0.001
[8] = CP 100 mg/kg i.p. once a week for 3 weeks, day 10 post-treatment, compared to control, p<0.001
[9] = compared to cells cultured in control medium
[10] = GM-CSF 0.1 or 1 ng/ml for 4 weeks, testosterone 10^−7 M added after 2 weeks in control medium for additional 2 weeks, after 4 weeks of culture, compared to control cultured cells
[11] = factor from the beginning of the culture (IL-1α 10 pg/ml; IL-1β or IL-6 1, 10 or 100 pg/ml), after 4 weeks of culture, compared to control medium
[12] = IL-1α 10 pg/ml added only after 2 weeks of the culture for additional 2 weeks, compared to control medium

## O=P1(N(CCCl)CCCl)NCCCO1 (centres unmarked) [CP, cyclophosphamide]
[1]; [6]
  number of Sertoli cells (vimentin): significantly reduced
  number of peritubular cells (αSMA): significantly reduced
[1]; [7]
  number of cells stained positive to the meiotic/postmeiotic marker acrosin: significantly reduced
  number of meiotic cells stained positive to BOULE: significantly reduced
  number of meiotic cells stained positive to CREM: significantly reduced
  number of premeiotic cells stained positive to CD9: significantly reduced
  number of premeiotic cells stained positive to VASA: significantly reduced
  number of premeiotic cells stained positive to c-KIT: significantly reduced
  number of premeiotic cells stained positive to α-6 INTEGRIN: significantly reduced
[1]; CP 100 mg/kg i.p. once a week for 3 weeks, all time points during 5 weeks after the last injection, compared to control mice, p<0.001
  testicular weight: significantly decreased
[1]; CP 100 mg/kg i.p. once a week for 3 weeks, day 10 post-treatment, compared to control
  seminiferous tubules histology: significantly impaired
[1]; [8]
  testicular cell count: decreased
  testicular weight: decreased
[1]; CP 100 mg/kg i.p. once a week for 3 weeks, during 3 weeks after the last injection
  seminiferous tubules histology: impaired
[1]; CP 100 mg/kg i.p. once a week for 3 weeks, weeks post-treatment
  time of most severe damage for the seminiferous tubules: 1-2 weeks
[2]
  expression levels of androgen binding protein (ABP): did not significantly affect
[2]; p<0.01
  expression levels of transferrin: significantly increased
[2]; p<0.05
  expression levels of FSH-receptor (FSH-R): significantly increased
  expression levels of inhibin: significantly increased

## C[C@]12CC[C@H]3[C@@H](CCC4=CC(=O)CC[C@@]43C)[C@@H]1CC[C@@H]2O [testosterone, reference compound]
[3]
  ACROSIN (meiotic/postmeiotic marker), percentage of stained cells: 55.53%
  BOULE (meiotic marker), percentage of stained cells: 22.15%
  C-KIT (pre-meiotic marker), percentage of stained cells: 11.13%
  CD9 (pre-meiotic marker), percentage of stained cells: 42.63%
  CREM (meiotic marker), percentage of stained cells: 38.42%
  GFR-a (pre-meiotic marker), percentage of stained cells: 24.03%
  VASA (pre-meiotic marker), percentage of stained cells: 23.76%
  a-6-INTG (pre-meiotic marker), percentage of stained cells: 12.23%
[3]; [9]
  percentage of the meiotic/postmeiotic ACROSIN positive cells: significantly increased
  percentage of the other examined premeiotic and meiotic (or meiotic/postmeiotic) cells developed in MCS: without any significant effect
  percentage of the premeiotic CD9 positive cells: significantly increased

## GM-CSF
[4]; [10]
  percentage of VASA positive cells: significantly increased
  percentage of acrosin positive cells: did not significantly increase
  percentages of BOULE positive cells: significantly increased
[5]
  BOULE expression levels (qPCR): significantly increased
  PLZF expression level (qPCR): significantly increased
  VASA expression level (qPCR): significantly increased
  acrosin expression levels (qPCR): did not significantly increase

## IL-1β: interleukin 1 beta cytokine (PeproTech), 1, 10 or 100 pg/ml
[4]; [11]
  percentages of BOULE positive cells: significantly increased
  percentages of VASA positive cells: significantly increased
  percentages of acrosin positive cells: significantly increased

## IL-6: interleukin-6 cytokine (PeproTech), 1, 10 or 100 pg/ml
[4]; [11]
  percentages of BOULE positive cells: significantly increased
  percentages of VASA positive cells: significantly increased
  percentages of acrosin positive cells: significantly increased

## TNFα
[3]
  ACROSIN (meiotic/postmeiotic marker), percentage of stained cells: 36.4%
  BOULE (meiotic marker), percentage of stained cells: 21.1%
  C-KIT (pre-meiotic marker), percentage of stained cells: 29.05%
  CD9 (pre-meiotic marker), percentage of stained cells: 33.52%
  CREM (meiotic marker), percentage of stained cells: 36.1%
  GFR-a (pre-meiotic marker), percentage of stained cells: 25.3%
  VASA (pre-meiotic marker), percentage of stained cells: 31.67%
  a-6-INTG (pre-meiotic marker), percentage of stained cells: 25.76%
[3]; [9]
  percentage of the other examined premeiotic and meiotic (or meiotic/postmeiotic) cells developed in MCS: without any significant effect
  percentage of the premeiotic CD9 positive cells: significantly increased

B1: IL-1α: interleukin 1 alpha cytokine (BioLegend 20 pg/ml; PeproTech 10 pg/ml) (protein, UniProt P01583 113-271, looked up)
Interleukin-1 alpha: SAPFSFLSNVKYNFMRIIKYEFILNDALNQSIIRANDQYLTAAALHNLDEAVKFDMGAYKSSKDDAKITVILRISKTQLYVTAQDEDQPVLLKEMPEIPKTITGSETNLLFFWETHGTKNYFTSVAHPNLFIATKQDYWVCLAGGPPSITDFQILENQA
[4]; [12]
  percentages of BOULE positive cells: increased the percentages of BOULE positive cells, but not significantly
  percentages of VASA positive cells: increased the percentages of VASA positive cells, but not significantly
  percentages of acrosin cells: increased the percentages of acrosin cells, but not significantly
[4]; [11]
  percentages of BOULE positive cells: significantly increased
  percentages of VASA positive cells: significantly increased
  percentages of acrosin positive cells: significantly increased
[3]
  ACROSIN (meiotic/postmeiotic marker), percentage of stained cells: 34.27%
  BOULE (meiotic marker), percentage of stained cells: 27.16%
  C-KIT (pre-meiotic marker), percentage of stained cells: 16.5%
  CD9 (pre-meiotic marker), percentage of stained cells: 23.4%
  CREM (meiotic marker), percentage of stained cells: 30.45 + %
  GFR-a (pre-meiotic marker), percentage of stained cells: 22.77%
  VASA (pre-meiotic marker), percentage of stained cells: 20.8%
  a-6-INTG (pre-meiotic marker), percentage of stained cells: 17.5%
[3]; [9]
  percentage of premeiotic, meiotic and meiotic/postmeiotic examined cells developed in MCS: did not show any significant effect
